Data published in patent US4758586A, “Indolyl compounds and hyposensitivity use thereof” (USV Pharmaceutical Corp., priority 1986, dated 1988).
Read-outs that look alike come from different tables or passages of the source.

Tests used:
[1] = test system: leukotriene C4 -induced contraction of guinea pig peripheral strips; assay: SRS-A antagonists (SALTI): leukotriene C4-induced contraction of guinea pig peripheral lung strips
Experimental: Protocol for SRS-A (Slow-reacting Substance of Anaphylaxis Antagonists (SALTI)
Peripheral strips of guinea pig lungs are prepared and hung in tissue baths (Metro #ME-5505, 10 ml) according to the published procedure (Pro. Nat'l. Acad. Sci., U.S.A. Volume 77, pp. 4354-4358, 1980). The strips are thoroughly rinsed in Assay Buffer and then connected with surgical silk thread to the support rods from the tissue baths. The rods are adjusted in the baths and the strips connected to the pressure transducers (Grass FT 103 or Gould UC-3). The tissue baths are aerated with 95% oxygen 5% carbon dioxide and maintained at 37° C. The Assay Buffer has been made as follows: For each liter of buffer the following are added to approximately 800 ml of water distilled in glass--6.87 g. NaCl, 0.4 g. KCl, […]. NaHCO3, 0.14 g. NaH2 PO4.H2 O, 0.21 g. MgSO4.7H2 O, and 2.0 g. D-glucose. Then a solution of 0.368 g. CaCl2.2H2 O in 100 ml glass-distilled water is slowly added to the buffer. Sufficient water is added to adjust the volume to one liter, and the solution is aerated with 95% oxygen--5% carbon dioxide. Usually 10 liters of buffer are used for an experiment with 4 tissues.
After the tissues have been repeatedly washed and allowed to equilibrate in the tissue bath, they are challenged with 1 μM histamine. After maximum contractions have been obtained, the tissues are washed, and allowed to relax back to baseline tension. This histamine challenge procedure is repeated at least 1 to 2 more times to obtain a repeatable control response. The average response to 1 μM histamine for each tissue is used to normalize all other challenges.
Responses of each tissue to a predetermined concentration of leukotriene are then obtained. Usually test compounds are examined initially at 30 μM on resting tension of the tissues without any added agonist or antagonist to determine if the compound has any possible intrinsic activity. The tissues are washed, and the test compound is added again. Leukotriene is added after the desired pre-incubation time. The intrinsic activity of the compounds, and their effect on leukotriene-induced contractions are then recorded.
The concentration required for 50% inhibition of 0.2 μM leukotriene C4 -induced contraction of guinea pig peripheral strips for representative compounds of the present invention is shown in Table 3.

Phospholipase A2 (PLA2) = target: T1, Phospholipase A2 (PLA2) (Rattus norvegicus, UniProt P14423); assay: In vitro assay for inhibitors of Phospholipase A2 (PLA2) from rat platelets; type: biochemical
T1 construct: obtained by aggregation of purified rat platelets; from tissue; host or cells: rat platelets (enzyme obtained by aggregation)
T1 sequence (P14423 22-146): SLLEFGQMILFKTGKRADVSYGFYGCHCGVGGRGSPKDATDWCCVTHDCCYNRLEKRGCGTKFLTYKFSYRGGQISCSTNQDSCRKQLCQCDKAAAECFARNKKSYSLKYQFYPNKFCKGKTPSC
Text: B. In Vitro Assay For Inhibitors of Phospholipase A2 Assayed at pH 7.0 (PLA2)
The PLA2 employed in this screen is obtained by aggregation of purified rat platelets. In the enzyme assay phosphatidylcholine having ^14 C-labeled palmitate residues at R1 and R2 is employed as substrate. PLA2 acts by cleaving the R2 fatty acid ester bond yielding free fatty acid and lysophosphatidyl choline as follows: [drawing 19]
Following completion of the reaction, the assay medium is acidified and extracted with hexane, which takes up unreacted substrate and free fatty acid product. The hexane extract is passed over a short silica column which retains 99% of the phosphatidyl choline. The ^14 C-labeled palmitic acid is not retained (90% recovery in eluate) and is collected directly in scintillation counting vials. The released palmitic acid is conveniently quantitated by liquid scintillation spectrometry.
The compounds were tested at 100 uM in a buffer containing 0.3 mM unlabeled phosphatidylcholine (PC), 20-30,000 cpm of ^14 C(CPC), […], 1 mM CaCl2 and 50 mM tris-HCl adjusted to pH 7.2 with 1N NaOH. […] The temperature of the buffer was maintained at a temperature of 37° C. The reaction was initiated by addition of the enzyme and it was terminated 30 minutes later by the addition of […] of 1N HCl.
Following acidification, the samples were extracted with 2 ml of 2-propanol and 2 ml of hexane, vortexed and allowed to stand until the phases separated. Free fatty acids (FFA) and some unreacted substrate were taken up in the isopropanol-saturated hexane. The hexane phase of the extraction mixture was transferred to a short silica gel column which retained […] but not the FFA. The column effluent was collected directly in scintillation vials. The columns were washed once with an additional 2 ml of hexane. The radio labeled FFA were quantitated by liquid scintillation spectrometry.

5-lipoxygenase = target: T2, 5-lipoxygenase (Rattus norvegicus, UniProt P12527); assay: Protocol for detecting inhibitors of the lipoxygenase pathway (5-HETE formation in rat neutrophils); type: cell-based
T2 construct: A suspension of rat neutrophils in buffer; endogenous in cells; host or cells: rat neutrophils (PMN)
T2 sequence (P12527 1-673): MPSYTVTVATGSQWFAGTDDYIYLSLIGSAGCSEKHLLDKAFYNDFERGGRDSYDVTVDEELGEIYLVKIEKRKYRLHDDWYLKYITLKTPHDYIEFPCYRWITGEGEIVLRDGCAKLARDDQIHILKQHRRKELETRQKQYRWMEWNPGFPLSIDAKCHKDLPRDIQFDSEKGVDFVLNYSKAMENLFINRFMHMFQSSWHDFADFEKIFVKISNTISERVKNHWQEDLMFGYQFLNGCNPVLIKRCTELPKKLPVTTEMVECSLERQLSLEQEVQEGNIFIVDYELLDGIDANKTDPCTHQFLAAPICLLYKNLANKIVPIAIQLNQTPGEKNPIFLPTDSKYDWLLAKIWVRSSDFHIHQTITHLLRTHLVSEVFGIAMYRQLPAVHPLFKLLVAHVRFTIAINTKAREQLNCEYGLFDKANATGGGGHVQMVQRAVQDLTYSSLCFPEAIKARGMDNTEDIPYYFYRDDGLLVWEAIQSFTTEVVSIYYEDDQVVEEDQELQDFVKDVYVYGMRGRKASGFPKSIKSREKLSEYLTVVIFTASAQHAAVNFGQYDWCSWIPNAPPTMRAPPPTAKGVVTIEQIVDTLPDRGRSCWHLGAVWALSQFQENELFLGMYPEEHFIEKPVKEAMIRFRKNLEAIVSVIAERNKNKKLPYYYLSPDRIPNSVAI
Experimental: Protocol for Detecting Inhibitors of the Lipoxygenase Pathway
A suspension of rat neutrophils in buffer is incubated for 3 minutes at 30° C. with [^14 C]-arachidonic acid (AA) and Calcium Ionophore A23187. Citric acid (2M) is used to quench the reaction. Following the addition of a trace amount of (^3 H)-5-HETE together with an excess of unlabeled 5-HETE to each tube, the mixture is extracted with chloroform/methanol. The organic layer is washed with dilute acid and an aliquot is transferred to glass tubes and dried. The residue is dissolved in a small volume of chloroform and an aliquot is spotted on silica get TLC sheets, which are developed with an ethyl acetate/isooctane/water acetic acid solvent system. The 5-HETE spots are visualized with iodine, cut out and placed in scintillation vials for counting. After adjusting for the extraction efficiency, the amount (pmole) of [^14 C]-5-HETE in each of the tubes is quantitated. The net pmoles of 5-HETE are obtained by subtracting the pmoles of 5-HETE in the tubes containing […]. The ability of the test compounds to modulate the activity of this enzyme is determined by a decrease or increase in the net amount of 5-HETE produced.

Phospholipase C (PLC) = assay: In vitro assay for inhibitors of Phospholipase C (PLC) from rat platelets; type: biochemical; conditions: at level tested (300 u)
Text: A. Protocol For In Vitro Assay For Inhibitors Of Phospholipase C (PLC)
The PLC employed in this screen is obtained by aggregation of purified rat platelets in the presence of CaCl2 and ADP. In the enzyme assay phosphatidylinositol having ^3 H -labeled arachidonate residues at R2 is employed as substrate. PLC acts by cleaving the phosphate ester bond yielding diglyceride as follows: [drawing 18]
Following completion of the reaction, the assay medium is acidified and extracted with hexane which takes up unreacted substrate and diglyceride. The hexane extract is passed over a short silica gel column which retains 99% of the phosphatidylinositol. The ^3 H-labeled diglyceride is not retained […]. The diglyceride is conveniently quantitated by liquid scintillation spectrometry.
The compounds were tested at 300 u in a buffer containing 0.06 mM unlabeled phosphatidylcholine (PC), 20-30,000 cpm of (CPC), 150 mM NaCl, 5 mM CaCl2 and 50 mM tris(hydroxymethyl)methylaminopropanesulfonic acid buffer, adjusted to pH 9.0 with 1N NaOH. The temperature of the buffer was maintained at a temperature of 37° C. The reaction was initiated by addition of the enzyme and it was terminated 10 minutes later by addition of 1 ml of 1N HCl.
Following acidification, the samples were extracted with 2 ml of isopropyl alcohol and 2 ml of hexane, vortexed and allowed to stand until the phases separate. […] and some unreacted substrate were taken up in the isopropanol-saturated hexane. The hexane phase of the extraction mixture was transferred to a short silica gel column which retains unreacted phosphatidylinositol, but not the 3H-diglyceride. The column effluent was collected directly in scintillation vials. The columns were washed once with additional 2 ml of hexane. The radiolabelled diglycerides were quantitated by liquid scintillation.

[2] = Cavia porcellus, leukotriene-induced contraction, read-out: SALTI I50 (Table 5)
[3] = Formula III, n=1 compounds, read-out: LOX I50 (Table 5)
[4] = rat PMN, [14C]-arachidonic acid + A23187, 5-HETE, read-out: LOX, (RAT PMN) I50
[5] = read-out: PLA2, inhibition level reached at 30 μM (Ixx = 30 μM)
[6] = Cavia porcellus, 0.2 μM leukotriene C4-induced contraction, read-out: SALTI, I50 μM

Cc1c(C=CC(=O)O)c2ccccc2n1Cc1ccccc1 [B-(1-Benzyl-2-methyl-indol-3-yl)acrylic acid] was tested, and the IC50 [1, 2] was 20 µM.
For O=C(O)C=Cc1cn(Cc2ccccc2)c2ccccc12 [B-(1-Benzylindol-3-yl)acrylic acid], the inhibition at 30 µM (Phospholipase A2 (PLA2); read-out: PLA2, inhibition level reached at 30 μM (printed I44 = 30 μM, Table 5)) was 44%.
For CCOC(=O)C=Cc1c(C)n(Cc2ccccc2)c2ccccc12 [Ethyl B-(1-benzyl-2-methyl-indol-3-yl)acrylate], the IC50 (5-lipoxygenase; [3]) was 1 µM and the “PLC activity class (Table 5)” value (Phospholipase C (PLC)) was “I”.
For CCOC(=O)C=Cc1cc2ccccc2[nH]1 [Ethyl B-(indol-2-yl)acrylate], the IC50 [1, 2] was 30 µM and the “PLC activity class (Table 5)” value (Phospholipase C (PLC)) was “I”.
With CCOC(=O)C=Cc1c[nH]c2ccccc12 [Ethyl β-(indol-3-yl)acrylate, reference compound] the IC50 (5-lipoxygenase; [3]) was 8 µM, the “PLA2 activity class (Table 5)” value (Phospholipase A2 (PLA2); at level tested (100 uM)) was “I” and the “PLC activity class (Table 5)” value (Phospholipase C (PLC)) was “I”.
For CCOC(=O)C=Cc1cn(Cc2ccccc2)c2ccccc12 [Ethyl-B-(benzylindol-3-yl)acrylate, reference compound], the “SALTI activity class (Table 5)” value ([1]; at level tested (initially 30 μM)) was “I”.
Work on CCOC(=O)C=CC=Cc1cn(Cc2ccccc2)c2ccccc12 [Example 1, Ethyl 5-(1-Benzylindol-3-yl)-2,4-Pentadienoate] yielded an IC50 (5-lipoxygenase; [4]) of 10 µM.
Work on O=C(O)C=CC=Cc1cn(Cc2ccccc2)c2ccccc12 [Example 2, 5-(1-Benzylindol-3-yl)-2,4-Pentadienoic Acid] yielded an IC50 (5-lipoxygenase; [4]) of 2 µM and an IC50 (Phospholipase A2 (PLA2)) of 16 µM.
CCOC(=O)c1ccc(NC(=O)C=CC=Cc2cn(Cc3ccccc3)c3ccccc23)cc1 [Example 3, N-(4-Carbethoxyphenyl)-5-(1-benzylindol-3-yl)-2,4-Pentadienamide] was tested, and the IC50 (5-lipoxygenase; [4]) was 2 µM.
CCOC(=O)C=CC=Cc1cn(Cc2ccccc2)c2ccc(OCc3ccccc3)cc12 [Example 4, Ethyl 5-(1-Benzyl-5-Benzyloxyindol-3-yl)-2,4-Pentadienoate] was tested, and the inhibition at 30 µM (Phospholipase A2 (PLA2); [5]) was 37%.
Work on O=C(O)C=CC=Cc1cn(Cc2ccccc2)c2ccc(OCc3ccccc3)cc12 [Example 5, 5-(1-Benzyl-5-Benzyloxyindol-3-yl)-2,4-Pentadienoic Acid] yielded an IC50 (5-lipoxygenase; [4]) of 2 µM.
CCOC(=O)C=CC=Cc1cn(Cc2ccccc2)c2ccc(OC)cc12 [Example 6, Ethyl 5-(1-Benzyl-5-Methoxyindol-3-yl)-2,4-Pentadienoate] gave an IC50 (5-lipoxygenase; [4]) of 4 µM.
For COc1ccc2c(c1)c(C=CC=CC(=O)O)cn2Cc1ccccc1 [Example 7, 5-(1-Benzyl-5-methoxyindol-3-yl)-2,4-Pentadienoic Acid], the IC50 (5-lipoxygenase; [4]) was 6 µM, the IC50 [1, 6] was 20 µM and the inhibition at 30 µM (Phospholipase A2 (PLA2); [5]) was 42%.
CCOC(=O)C=CC=Cc1c[nH]c2ccccc12 [Example 10, Ethyl 5-(indol-3-yl)-2,4-Pentadienoate] was tested, and the IC50 (5-lipoxygenase; [4]) was 12 µM and the IC50 [1, 6] was 2 µM.
Work on CCOC(=O)C=CC=Cc1c(C)n(Cc2ccccc2)c2ccccc12 [Example 11, Ethyl 5-(1-Benzyl-2-methylindol-3yl)-2,4-Pentadienoate] yielded an IC50 (5-lipoxygenase; [4]) of 15 µM.
OCC=Cc1cn(Cc2ccccc2)c2ccccc12 [Example 13, 1-Benzyl-3-(3-Hydroxy-1-Propen-1-yl)Indole] showed an IC50 (5-lipoxygenase; [4]) of 7.5 µM.
CCOC(=O)C=CC=Cc1cc2cc(OC)ccc2[nH]1 [Example 16, Ethyl 5-(5-methoxyindol-2-yl)-2,4-Pentadienoate] gave an IC50 (5-lipoxygenase; [4]) of 10 µM and an inhibition at 30 µM ([1]; Cavia porcellus, at 30 μM, 0.2 μM leukotriene C4-induced contraction, read-out: SALTI, % I at 30 μM) of 53%.
Work on CCOC(=O)C=CC=Cc1cc2cc(OC)ccc2n1C(=O)c1ccc(Cl)cc1 [Example 17, Ethyl 5-(1-p-chlorobenzoyl-5-methoxyindol-2-yl)-2,4-Pentadienoate] yielded an IC50 (5-lipoxygenase; [4]) of 10 µM.
